Results from US10119097B2, “Organic compounds” (GIVAUDAN SA, priority 2014, dated 2018).

Assays:
rat hepatocytes = test: in vitro metabolism in rat hepatocytes in suspension, benzoic acid derivative formation by GC-MS; format: in vitro ADME; details: incubated with hepatocytes isolated from rats; substantially no = below the limit of detection, i.e. <1%
Description: Decrease of Lilial™ and the compound released by the precursor of the present invention, and formation of the corresponding benzoic acid derivative may be analysed by GC-MS.
By “substantially no benzoic acid derivative” is meant that the concentration of said derivative is below the limit of detection, i.e. <1%. As such, the fragrance precursor releasing 3-(4-isobutyl-2-methylphenyl)propanal provides perfumers with an eminently suitable surrogate for the valuable yet problematic Lilial™.

primates = details: cited from earlier work
mice = details: mouse, in vivo; cited from earlier work
guinea-pigs = details: guinea pig, in vivo; cited from earlier work

Compound | formation of the corresponding benzoic acid derivative (rat hepatocytes) | toxic effects (primates) | toxic effects (mice) | toxic effects (guinea-pigs)
Cc1cc(CC(C)C)ccc1CCC=O [3-(4-isobutyl-2-methylphenyl)propanal] | forms no, or substantially no, corresponding benzoic acid derivative | – | – | –
CC(C=O)Cc1ccc(C(C)(C)C)cc1 (stereo not shown) [Lilial™, 3-(4-tert-butylphenyl)-2-methylpropanal] | – | No effects were found | No effects were found | No effects were found
